Experiment: PET test using normal cynomolgus monkey (heart contrast PET, SUV in myocardium and bone ROI)
Assay type: in vivo
Conditions: for SUV (bone) 20 minutes / SUV (bone) 60 minutes / SUV (bone) 120 minutes / SUV (bone) 180 minutes / SUV (myocardium) 20 minutes / SUV (myocardium) 60 minutes / SUV (myocardium) 120 minutes / SUV (myocardium) 180 minutes: male normal cynomolgus monkey, about 300 MBq i.v.; for SUV (bone) 20 minutes / SUV (bone) 60 minutes / SUV (bone) 120 minutes / SUV (bone) 180 minutes: ROI bone (near the spine), n.d. = target organ cannot be confirmed in the image and ROI cannot be set; for SUV (bone) 20 minutes / SUV (myocardium) 20 minutes: 0 to 20 minutes after administration; for SUV (bone) 60 minutes / SUV (myocardium) 60 minutes: 20-minute section ending 60 minutes after administration; for SUV (bone) 120 minutes / SUV (myocardium) 120 minutes: 20-minute section ending 120 minutes after administration; for SUV (bone) 180 minutes / SUV (myocardium) 180 minutes: 160 to 180 minutes after administration; for SUV (myocardium) 20 minutes / SUV (myocardium) 60 minutes / SUV (myocardium) 120 minutes / SUV (myocardium) 180 minutes: ROI myocardium, Examples 1 case, Reference Example 15 average ± standard error of 3 cases
Excerpt: Solutions containing each compound prepared in Examples 1 to 7 and Reference Example 15 ([^18F]FTO) were used to perform a heart contrast PET test using normal cynomolgus monkeys.
For performing non-invasive PET imaging, in a state in which a male cynomolgus monkey was anesthetized with inhalation anesthetic isoflurane, the monkey was held at a supine body position on a PET camera SHR17000 (manufactured by Hamamatsu Photonics K.K.), the solution containing each compound (about 300 MBq) was administered from the lower extremity vein, and continuous imaging was performed for 180 minutes or more after the administration. The PET images were reconstructed by dynamic row-action maximum likelihood algorithm (DRAMA) and average images per each time section which is divided every 20 minutes from 0 minutes to 180 minutes after the administration, are obtained. Then, the region of interest (ROI) was set in the myocardium region or bone (near the spine), and the accumulation (standardized uptake value (SUV)) of each compound was calculated as {radioactivity count in the ROI (MBq/cc)/[dose (MBq)/body weight (g)]}.
The SUV values quantified by setting the ROI for the myocardium and the bone of each compound are shown in Tables 10 and 11 as SUV (myocardium) and SUV (bone). […] A case where the target organ cannot be confirmed in the image and the ROI cannot be set is denoted as n.d. The time in the Tables represents an end point of each time section, for example, “20 minutes” represents the SUV value from 0 minutes to 20 minutes after, and “180 minutes” represents the SUV value from 160 minutes to 180 minutes after the administration. In addition, Maximum Intensity Projection (MIP) PET images 60 minutes and 180 minutes after the administration of the compounds of Reference Example 15 ([…]) and Example 6 are shown in FIGS. 1A to 1D.

CCCCCCCCC([18F])CCSCCCCC(=O)O (stereo not shown) [Example 7, 5-[(3-[^18F]fluoroundecyl)sulfanyl]pentanoic acid]
SUV (bone) 20 minutes: 1.87 | SUV (bone) 60 minutes: 3.41 | SUV (bone) 120 minutes: 5.11 | SUV (bone) 180 minutes: 6.36 | SUV (myocardium) 20 minutes: 11.6 | SUV (myocardium) 60 minutes: 11.4 | SUV (myocardium) 120 minutes: 10.0 | SUV (myocardium) 180 minutes: 8.44

CCCCCCCCCC([18F])CCSCCC(=O)O (stereo not shown) [Example 2, 3-[(3-[^18F]fluorododecyl)sulfanyl]propanoic acid]
SUV (bone) 20 minutes: 1.40 | SUV (bone) 60 minutes: 1.05 | SUV (bone) 120 minutes: 1.34 | SUV (bone) 180 minutes: 1.14 | SUV (myocardium) 20 minutes: 7.40 | SUV (myocardium) 60 minutes: 7.53 | SUV (myocardium) 120 minutes: 6.74 | SUV (myocardium) 180 minutes: 5.92

O=C(O)CCSCCCC/C=C\CCCCCCCC[18F] [Reference Example 15, 3-{[(5Z)-14-[^18F]fluorotetradec-5-en-1-yl]sulfanyl}propanoic acid, reference compound]
SUV (bone) 20 minutes: 1.42 ± 0.10 | SUV (bone) 60 minutes: 2.27 ± 0.13 | SUV (bone) 120 minutes: 3.82 ± 0.60 | SUV (bone) 180 minutes: 5.05 ± 0.99 | SUV (myocardium) 20 minutes: 6.45 ± 0.59 | SUV (myocardium) 60 minutes: 6.54 ± 0.51 | SUV (myocardium) 120 minutes: 5.90 ± 0.58 | SUV (myocardium) 180 minutes: 5.21 ± 0.59

CCCCCCCCC1CC1CC([18F])CCSCCC(=O)O (stereo not shown) [Example 6, 3-{[3-[^18F]fluoro-4-(2-octylcyclopropyl)butyl]sulfanyl}propanoic acid]
non-specific accumulation to the bone (PET, normal cynomolgus monkey, result in words): not detected at all | SUV (myocardium) 20 minutes: 7.74 | SUV (myocardium) 60 minutes: 6.24 | SUV (myocardium) 120 minutes: 4.80 | SUV (myocardium) 180 minutes: 3.98

CCCCCCCCCCCC([18F])CCSCCC(=O)O (stereo not shown) [Example 4, 3-[(3-[^18F]fluorotetradecyl)sulfanyl]propanoic acid]
SUV (bone) 20 minutes: 1.57 | SUV (bone) 60 minutes: 1.13 | SUV (bone) 120 minutes: 1.27 | SUV (bone) 180 minutes: 1.51 | SUV (myocardium) 20 minutes: 6.65 | SUV (myocardium) 60 minutes: 5.44 | SUV (myocardium) 120 minutes: 4.38 | SUV (myocardium) 180 minutes: 3.92

CCCCCCCC/C=C/CC([18F])CCSCCC(=O)O (stereo not shown) [Example 5, 3-{[(5E)-3-[^18F]fluorotetradec-5-en-1-yl]sulfanyl}propanoic acid]
SUV (bone) 20 minutes: 1.45 | SUV (bone) 60 minutes: 1.36 | SUV (bone) 120 minutes: 1.28 | SUV (bone) 180 minutes: 1.40 | SUV (myocardium) 20 minutes: 6.84 | SUV (myocardium) 60 minutes: 6.13 | SUV (myocardium) 120 minutes: 5.16 | SUV (myocardium) 180 minutes: 5.09

CC/C=C\C/C=C\C/C=C\CC([18F])CCSCCC(=O)O (stereo not shown) [Example 1, 3-{[(5Z,8Z,11Z)-3-[lSF]fluorotetradeca-5,8,11-trien-1-yl]sulfanyl}propanoic acid]
SUV (bone) 20 minutes: 0.87 | SUV (bone) 60 minutes: 0.69 | SUV (bone) 120 minutes: 0.75 | SUV (bone) 180 minutes: 0.79 | SUV (myocardium) 20 minutes: 4.87 | SUV (myocardium) 60 minutes: 4.13 | SUV (myocardium) 120 minutes: 3.21 | SUV (myocardium) 180 minutes: 2.80

CCCCC/C=C\C/C=C\CC([18F])CCSCCC(=O)O (stereo not shown) [Example 3, 3-{[(5Z,8Z)-3-[^18F]fluorotetradeca-5,8-dien-1-yl]sulfanyl}propanoic acid]
SUV (bone) 20 minutes: 2.12 | SUV (bone) 60 minutes: 2.00 | SUV (bone) 120 minutes: 2.07 | SUV (bone) 180 minutes: 2.08 | SUV (myocardium) 20 minutes: 5.75 | SUV (myocardium) 60 minutes: 3.20 | SUV (myocardium) 120 minutes: 2.80 | SUV (myocardium) 180 minutes: 2.41
